{"source": "paper PMC7307930", "about": "“Stereoselective Activity of 1-Propargyl-4-styrylpiperidine-like Analogues That Can Discriminate between Monoamine Oxidase Isoforms A and B” (Journal of Medicinal Chemistry, 2020)", "key": {"SH-SY5Y cells [1]": {"system": "SH-SY5Y cells", "test": "LDH release, 6-OHDA-induced toxicity", "conditions": "100 μM 6-OHDA, 24 h"}, "MAO-B [2]": {"target": "T1, MAO-B (Mus musculus, UniProt Q8BW75)", "T1 construct": "Brain homogenates from male Swiss mice were first characterized in terms of their MAOs activity; from tissue; host or cells: whole brain homogenate of male Swiss mice", "T1 sequence (Q8BW75 1-520)": "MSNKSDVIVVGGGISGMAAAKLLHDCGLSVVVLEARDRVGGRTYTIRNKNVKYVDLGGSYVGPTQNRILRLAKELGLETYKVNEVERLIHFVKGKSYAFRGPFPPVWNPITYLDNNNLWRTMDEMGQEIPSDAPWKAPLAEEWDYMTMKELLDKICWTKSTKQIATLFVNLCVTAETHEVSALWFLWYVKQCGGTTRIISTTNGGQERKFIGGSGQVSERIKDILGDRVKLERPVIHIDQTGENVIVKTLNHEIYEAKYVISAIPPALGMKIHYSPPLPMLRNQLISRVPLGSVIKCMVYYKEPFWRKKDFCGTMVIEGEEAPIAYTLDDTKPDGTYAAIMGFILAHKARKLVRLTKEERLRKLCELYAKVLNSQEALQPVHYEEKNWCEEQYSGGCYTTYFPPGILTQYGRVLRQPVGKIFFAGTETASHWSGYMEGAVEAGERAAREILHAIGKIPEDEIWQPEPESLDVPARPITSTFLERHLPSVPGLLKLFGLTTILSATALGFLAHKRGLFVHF", "test": "In vitro MAO inhibition in mouse brain homogenate, benzylamine substrate", "format": "biochemical", "conditions": "substrate of MAO B, control mouse brain homogenates"}, "Swiss mice [3]": {"system": "Swiss mice", "test": "Locomotor activity test", "format": "in vivo, mouse"}, "[4]": {"test": "Chemical stability and photoisomerization by proton NMR in D2O", "format": "physicochemical", "conditions": "hydrochloride salts, more than 1 year at room temperature protected from sunlight, 1H NMR in D2O", "procedure": "Possible chemical instability and photoisomerization of E/Z isomers were also addressed as these are known liabilities of stilbene derivatives.[23] Proton NMRs of 69 (cis derivative), 84 (trans derivative), and 100 (ethyl analogue) in the form of hydrochloride salts were recorded in D2O (Figures S1–S3). […] The samples dissolved in the NMR tubes were then left on the benchtop exposed to natural daylight for 7 days, which could induce photoisomerization. […] Altogether, these studies imply reasonable stability of the compounds.\nFigure S2. […] Compound 84 (trans isomer, […]\nhydrochloride salt) was dissolved in D2O and the spectra were recorded at time 0 h, 1 h, 24 h and 7 days. Sample was exposed to day light in between the measurement, which could induce photoisomerization and potentially also chemical degradation.\nThe sample was previously stored at […]"}, "SH-SY5Y cells [5]": {"system": "SH-SY5Y cells", "test": "MTS cytotoxicity assay", "conditions": "24 h, 5 μM and 10 μM"}, "5-HT1A receptor": {"target": "T2, 5-HT1A receptor (Rattus norvegicus, UniProt P19327)", "T2 construct": "from tissue; host or cells: rat (male Wistar) brain cortex membranes", "T2 sequence (P19327 1-422)": "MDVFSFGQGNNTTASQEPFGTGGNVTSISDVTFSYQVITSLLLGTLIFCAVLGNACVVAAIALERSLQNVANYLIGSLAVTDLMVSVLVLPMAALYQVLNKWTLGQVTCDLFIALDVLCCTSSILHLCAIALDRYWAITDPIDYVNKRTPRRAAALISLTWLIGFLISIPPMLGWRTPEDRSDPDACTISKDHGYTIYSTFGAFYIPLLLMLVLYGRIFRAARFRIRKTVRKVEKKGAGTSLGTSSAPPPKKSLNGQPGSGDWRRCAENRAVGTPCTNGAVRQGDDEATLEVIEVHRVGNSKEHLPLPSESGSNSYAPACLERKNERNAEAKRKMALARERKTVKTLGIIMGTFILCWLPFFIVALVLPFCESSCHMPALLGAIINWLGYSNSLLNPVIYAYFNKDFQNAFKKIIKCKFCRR", "test": "[3H]-8-OH-DPAT radioligand binding assay, rat cortex membranes", "conditions": "[3H]-8-OH-DPAT binding, means ±SEM"}, "MAO-B [6]": {"target": "T1, MAO-B", "test": "Ex vivo MAO inhibition in brain homogenates of treated mice, benzylamine substrate", "conditions": "10 days 0.3 mg/kg ip, with or without haloperidol, two-way ANOVA"}, "Swiss mice [7]": {"system": "Swiss mice", "test": "Body mass and survival during 10-day treatment", "format": "in vivo", "conditions": "0.3 mg/kg ip daily", "procedure": "Figure S9. In vivo effects of chronic treatment on body mass. Body mass variation (Percent weight) (mean ±SEM) in mice throughout the 10-day i.p. treatment with 69 (0.3 mg/kg; n = 10), 100 (0.3 mg/kg; n = 8) and saline (SAL; n = 16). Data are means ±SEM. All animals survived the treatments."}, "[8]": {"test": "Thermodynamic solubility in PBS", "format": "physicochemical", "conditions": "PBS (pH 7.4), 37 °C, 24 h, hydrochloride salts"}, "hMAO-A": {"target": "T3, hMAO-A (Homo sapiens, UniProt P21397)", "T3 construct": "purchased Sigma Aldrich; host or cells: baculovirus-infected insect cells (BTI-TN-5B1-4)", "T3 sequence (P21397 1-527)": "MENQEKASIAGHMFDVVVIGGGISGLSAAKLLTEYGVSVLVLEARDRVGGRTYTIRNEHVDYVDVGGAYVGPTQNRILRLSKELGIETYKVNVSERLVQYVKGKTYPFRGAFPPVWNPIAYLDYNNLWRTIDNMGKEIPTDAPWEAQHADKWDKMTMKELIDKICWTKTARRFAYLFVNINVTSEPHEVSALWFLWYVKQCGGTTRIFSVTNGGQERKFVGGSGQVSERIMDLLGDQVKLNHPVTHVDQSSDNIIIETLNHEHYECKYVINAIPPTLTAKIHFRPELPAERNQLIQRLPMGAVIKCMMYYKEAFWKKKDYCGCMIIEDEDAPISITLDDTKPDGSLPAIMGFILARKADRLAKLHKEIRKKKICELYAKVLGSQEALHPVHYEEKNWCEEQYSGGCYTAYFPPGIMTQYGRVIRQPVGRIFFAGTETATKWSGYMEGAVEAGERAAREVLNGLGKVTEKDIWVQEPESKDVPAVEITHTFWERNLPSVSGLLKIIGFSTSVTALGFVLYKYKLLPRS", "test": "hMAO-A inhibition, HRP–Amplex Red coupled fluorimetric assay", "format": "biochemical", "conditions": "supplement csv; RA at 100 micromolar"}, "MAO-A/B": {"system": "MAO-A/B", "test": "In vitro MAO inhibition in mouse brain homogenate, p-tyramine substrate", "format": "biochemical", "conditions": "50 μM compound, homogenate from nontreated mice"}, "Swiss mice [9]": {"system": "Swiss mice", "test": "Haloperidol-induced catalepsy test", "format": "in vivo, mouse"}, "Swiss mice [10]": {"system": "Swiss mice", "test": "Hole–board test"}}, "data": [{"smiles": "NCCc1cc(O)c(O)cc1O", "note": "[6-OHDA, 6-hydroxydopamine]", "values": [{"measurement": "LDH release vs control", "setting": "SH-SY5Y cells [1]", "value": 135, "unit": "%"}]}, {"smiles": "NCc1ccccc1", "note": "[Benzylamine]", "values": [{"measurement": "K0.5", "setting": "MAO-B [2]", "value": "0.268 ± 0.017", "unit": "mM"}]}, {"smiles": "C#CCN1CCC(CCc2ccc(C(F)(F)F)cc2)CC1", "note": "[Compound 100, 1-(Prop-2-yn-1-yl)-4-(4-(trifluoromethyl)phenethyl)piperidine]", "values": [{"measurement": "locomotor activity", "setting": "Swiss mice [3]; 10 days, 0.3 mg/kg ip daily", "value": "did not affect"}, {"measurement": "locomotor activities", "setting": "Swiss mice [3]; acute ip doses of ≥10 mg/kg", "value": "reduced"}, {"measurement": "chemical stability on storage", "setting": "[4]", "value": "no signs of chemical instability"}, {"measurement": "cytotoxic effects", "setting": "SH-SY5Y cells [5]", "value": "no significant cytotoxic effects"}, {"measurement": "Ki", "setting": "5-HT1A receptor", "value": "25.9 ± 1.5", "unit": "µM"}, {"measurement": "ex vivo MAO-B activity after haloperidol-induced catalepsy test", "setting": "MAO-B [6]", "value": "decreased MAO-B activity"}, {"measurement": "body mass variations versus control mice", "setting": "Swiss mice [7]", "value": "No significant differences"}, {"measurement": "thermodynamic solubility", "setting": "[8]", "value": "≥ 16.3", "unit": "g/250 mL"}, {"measurement": "IC50(MAO-A) class", "setting": "hMAO-A", "value": "na (na-not_active(RA_at_100micromolar>50%))"}, {"measurement": "residual activity, p-tyramine (0.5 mM), in vitro", "setting": "MAO-A/B", "value": "59.4 ± 0.2", "unit": "%"}, {"measurement": "latency time to descent from the bar", "setting": "Swiss mice [9]; 10-day i.p. 0.3 mg/kg daily", "value": "increased significantly"}, {"measurement": "reversal of haloperidol-induced catalepsy", "setting": "Swiss mice [9]; acute i.p. 3 mg/kg", "value": "did not reverse the catalepsy"}, {"measurement": "parameters of the hole–board test", "setting": "Swiss mice [10]; 10 days, 0.3 mg/kg ip daily", "value": "did not affect"}, {"measurement": "hole–board test parameters", "setting": "Swiss mice [10]; acute ip doses of ≥10 mg/kg", "value": "reduced"}]}]}
